Laboratory results: patent publication US9387204B2, “Fused bicyclic imidazoles” (BAYER INTELLECTUAL PROPERTY GmbH, priority 2007, dated 2016)
Where two headings read alike, the source gives them in different places.

Test system: A549 cells
Test: Cellular proliferation/cytotoxicity assay (Alamar Blue), A549 cells
Settings: read-out: Anti-proliferative/Cytotoxic activity (A549 cells)
[1] = A549 cells, 72 h, Alamar Blue (Resazurin)

Protocol: The anti-proliferative activity of the compounds as described herein, is evaluated using the OvCAR3, HCT116 and A549 cell lines and the Alamar Blue (Resazurin) cell viability assay (O'Brien et al. Eur J Biochem 267, 5421-5426, 2000). Resazurin is reduced to the fluorescent resorufin by cellular dehydrogenase activity, correlating with viable, proliferating cells. Test compounds are dissolved as 10 mM solutions in DMSO and subsequently diluted. Cells like HCT116 or A549 cells were seeded into 96 well flat bottom plates at a density of 10000 cells/well (OvCAR3 cells), 1000 cells/well (HCT116 cells) or 2000 cells/well (A549 cells) in a volume of 200 μl/well. 24 hours after seeding, 1 μl each of the compound dilutions are added into each well of the 96 well plates. Each compound dilution is tested as at least as duplicates. Wells containing untreated control cells were filled with 200 μl DMEM (Dulbecco's Modified Eagle Medium) containing 0.5 vol % v:v DMSO. The cells are then incubated with the substances for 72 h at 37° C. in a humidified atmosphere containing 5 vol % CO2. To determine the viability of the cells, 20 μl of a Resazurin solution (90 mg/l) are added. After 4 h incubation at 37° C., the fluorescence is measured by extinction at ? =544 nm and an emission of ? =590 nm (Wallac Victor2; Perkin Elmer, USA). For the calculation of the cell viability, the emission value from untreated cells is set as 100% viability and the fluorescence intensity of treated cells are set in relation to the values of untreated cells. Viabilities are expressed as % values. The corresponding IC50 values of the compounds for cytotoxic activity are determined from the concentration-effect curves by means of non-linear regression. The analysis of the data is performed using a biostatistical program (Graph Pad Prism, USA).

In the case of `Cc1ccc2nc(-c3ccc(CN4CCC(c5nnc(-c6ncccn6)[nH]5)CC4)cc3)c(-c3ccccc3)n2n1` [Example 83, ′6-methyl-3-phenyl-2-(4-{[4-(5-pyrimidin-2-yl-4H-1,2,4-triazol-3-yl)piperidin-1-yl]methyl}phenyl)imidazo[1,2-b]pyridazine], the IC50 [1] is reported as greater than 10 µM.

`Cc1cccc(-c2nnc(C3CCN(Cc4ccc(-c5nc6ccccn6c5-c5ccccc5)cc4)CC3)[nH]2)n1` [Example 64, 2-[4-({4-[5-(6-methylpyridin-2-yl)-4H-1,2,4-triazol-3-yl]piperidin-1-yl}methyl)phenyl]-3-phenylimidazo[1,2-a]pyridine] showed an IC50 (Homo sapiens, A549, 72 h) of less than 10 µM.

For `c1ccc(-c2c(-c3ccc(CN4CCC(c5nc(-c6cnccn6)no5)CC4)cc3)nc3ncccn23)cc1` [Example 4, 3-phenyl-2-(4-{[4-(3-pyrazin-2-yl-1,2,4-oxadiazol-5-yl)piperidin-1-yl]methyl}phenyl)imidazo[1,2-a]pyrimidine], the IC50 (Homo sapiens, A549, 72 h) was greater than 10 µM.

With `Fc1ccc(-c2c(-c3ccc(CN4CCC(c5n[nH]c(-c6ccccn6)n5)CC4)cc3)nc3ccccn23)cc1` [Example 9, 3-(4-fluorophenyl)-2-(4-{[4-(5-pyridin-2-yl-1,2,4-triazol-3-yl)piperidin-1-yl]methyl}phenyl)imidazo[1,2-a]pyridine] the IC50 (Homo sapiens, A549, 72 h) was less than 10 µM.

Compound `N#Cc1cc2nc(-c3ccc(CN4CCC(c5nnc(-c6ccccn6)[nH]5)CC4)cc3)c(-c3ccccc3)n2cc1Br` [Example 52, ′6-bromo-3-phenyl-2-(4-{[4-(5-pyridin-2-yl-4H-1,2,4-triazol-3-yl)piperidin-1-yl]methyl}phenyl)imidazo[1,2-a]pyridine-7-carbonitrile] has an IC50 [1] greater than 10 µM.

For `c1ccc(-c2c(-c3ccc(CN4CCC(c5nnc(-c6ccco6)[nH]5)CC4)cc3)nc3ccccn23)cc1` [Example 91, ′2-[4-({4-[5-(2-furyl)-4H-1,2,4-triazol-3-yl]piperidin-1-yl}methyl)phenyl]-3-phenylimidazo[1,2-a]pyridine], the IC50 [1] was less than 10 µM.

Work on `c1ccc(-c2c(-c3ccc(CN4CCC(c5noc(-c6ccccn6)n5)CC4)cc3)nc3ncccn23)cc1` [Example 116, ′3-phenyl-2-(4-{[4-(5-pyridin-2-yl-1,2,4-oxadiazol-3-yl)piperidin-1-yl]methyl}phenyl)imidazo[1,2-a]pyrimidine] yielded an IC50 [1] of less than 10 µM.

`Cc1ccn2c(-c3ccccc3)c(-c3ccc(CN4CCC(c5n[nH]c(-c6ccccn6)n5)CC4)cc3)nc2n1` [Example 19, 7-methyl-3-phenyl-2-(4-{[4-(5-pyridin-2-yl-1,2,4-triazol-3-yl)piperidin-1-yl]methyl}phenyl)imidazo[1,2-a]pyrimidine] gave an IC50 (Homo sapiens, A549, 72 h) of less than 10 µM.

`FC(F)(F)c1nn2c(-c3ccccc3)c(-c3ccc(CN4CCC(c5nnc(-c6ccccn6)[nH]5)CC4)cc3)nc2s1` [Example 48, 5-phenyl-6-[4-({4-[5-(pyridin-2-yl)-4H-1,2,4-triazol-3-yl]piperidin-1-yl}methyl)phenyl]-2-(trifluoromethyl)imidazo[2,1-b][1,3,4]thiadiazole] showed an IC50 (Homo sapiens, A549, 72 h) greater than 10 µM.

Compound `c1ccc(-c2c(-c3ccc(CN4CCC(c5n[nH]c(-c6ccccn6)n5)CC4)cc3)nc3ncccn23)cc1` [Example 1, 3-phenyl-2-(4-{[4-(5-pyridin-2-yl-1,2,4-triazol-3-yl)piperidin-1-yl]methyl}phenyl)imidazo[1,2-a]pyrimidine] has an IC50 (Homo sapiens, A549, 72 h) greater than 10 µM.

With `Brc1ccc2nc(-c3ccc(CN4CCC(c5n[nH]c(-c6ccccn6)n5)CC4)cc3)c(-c3ccccc3)n2c1` [Example 6, 6-bromo-3-phenyl-2-(4-{[4-(5-pyridin-2-yl-1,2,4-triazol-3-yl)piperidin-1-yl]methyl}phenyl)imidazo[1,2-a]pyridine] the IC50 (Homo sapiens, A549, 72 h) was less than 10 µM.

Compound `c1ccc(-c2c(-c3ccc(CN4CCC(c5nnc(-c6cccs6)[nH]5)CC4)cc3)nc3scnn23)cc1` [Example 101, ′5-phenyl-6-[4-({4-[5-(2-thienyl)-4H-1,2,4-triazol-3-yl]piperidin-1-yl}methyl)phenyl]imidazo[2,1-b][1,3,4]thiadiazole] has an IC50 [1] of less than 10 µM.

In the case of `Ic1cnc2nc(-c3ccc(CN4CCC(c5n[nH]c(-c6ccccn6)n5)CC4)cc3)c(-c3ccccc3)n2c1` [Example 23, 6-iodo-3-phenyl-2-(4-{[4-(5-pyridin-2-yl-1,2,4-triazol-3-yl)piperidin-1-yl]methyl}phenyl)imidazo[1,2-a]pyrimidine], the IC50 (Homo sapiens, A549, 72 h) is reported as greater than 10 µM.

Work on `Cc1ccc2nc(-c3ccc(CN4CCC(c5nnc(-c6ccccn6)[nH]5)CC4)cc3)c(-c3ccccc3)n2n1` [Example 53, ′6-methyl-3-phenyl-2-(4-{[4-(5-pyridin-2-yl-4H-1,2,4-triazol-3-yl)piperidin-1-yl]methyl}phenyl)imidazo[1,2-b]pyridazine] yielded an IC50 [1] of less than 10 µM.

`c1ccc(-c2c(-c3ccc(CN4CCC(c5nnc(-c6ccc[nH]6)[nH]5)CC4)cc3)nc3scnn23)cc1` [Example 108, ′5-phenyl-6-[4-({4-[5-(1H-pyrrol-2-yl)-4H-1,2,4-triazol-3-yl]piperidin-1-yl}methyl)phenyl]imidazo[2,1-b][1,3,4]thiadiazole] was tested, and the IC50 [1] was less than 10 µM.

`c1ccc(-c2c(-c3ccc(CN4CCC(c5nnc(-c6ncccn6)[nH]5)CC4)cc3)nc3ccccn23)cc1` [Example 80, ′3-phenyl-2-(4-{[4-(5-pyrimidin-2-yl-4H-1,2,4-triazol-3-yl)piperidin-1-yl]methyl}phenyl)imidazo[1,2-a]pyridine] gave an IC50 [1] greater than 10 µM.

`Clc1cnc2nc(-c3ccc(CN4CCC(c5n[nH]c(-c6ccccn6)n5)CC4)cc3)c(-c3ccccc3)n2c1` [Example 21, 6-chloro-3-phenyl-2-(4-{[4-(5-pyridin-2-yl-1,2,4-triazol-3-yl)piperidin-1-yl]methyl}phenyl)imidazo[1,2-a]pyrimidine] gave an IC50 (Homo sapiens, A549, 72 h) of less than 10 µM.

`c1ccc(-c2nc(C3CCN(Cc4ccc(-c5nc6ncccn6c5-c5ccsc5)cc4)CC3)n[nH]2)nc1` [Example 34, 2-(4-{[4-(5-pyridin-2-yl-1,2,4-triazol-3-yl)piperidin-1-yl]methyl}phenyl)-3-(3-thienyl)imidazo[1,2-a]pyrimidine] gave an IC50 (Homo sapiens, A549, 72 h) greater than 10 µM.

`N#Cc1ccn2c(-c3ccccc3)c(-c3ccc(CN4CCC(c5nnc(-c6ccc[nH]6)[nH]5)CC4)cc3)nc2c1` [Example 110, ′3-phenyl-2-[4-({4-[5-(1H-pyrrol-2-yl)-4H-1,2,4-triazol-3-yl]piperidin-1-yl}methyl)phenyl]imidazo[1,2-a]pyridine-7-carbonitrile] gave an IC50 [1] of less than 10 µM.

For `Clc1nccn2c(-c3ccccc3)c(-c3ccc(CN4CCC(c5n[nH]c(-c6ccccn6)n5)CC4)cc3)nc12` [Example 26, 8-chloro-3-phenyl-2-(4-{[4-(5-pyridin-2-yl-1,2,4-triazol-3-yl)piperidin-1-yl]methyl}phenyl)imidazo[1,2-a]pyrazine], the IC50 (Homo sapiens, A549, 72 h) was greater than 10 µM.

With `COc1ccc2nc(-c3ccc(CN4CCC(c5n[nH]c(-c6ccccn6)n5)CC4)cc3)c(-c3ccccc3)n2n1` [Example 32, 6-methoxy-3-phenyl-2-(4-{[4-(5-pyridin-2-yl-1,2,4-triazol-3-yl)piperidin-1-yl]methyl}phenyl)imidazo[1,2-b]pyridazine] the IC50 (Homo sapiens, A549, 72 h) was less than 10 µM.

Work on `Cc1cccc(-c2nnc(C3CCN(Cc4ccc(-c5nc6ccc(C)nn6c5-c5ccccc5)cc4)CC3)[nH]2)n1` [Example 69, 6-methyl-2-[4-({4-[5-(6-methylpyridin-2-yl)-4H-1,2,4-triazol-3-yl]piperidin-1-yl}methyl)phenyl]-3-phenylimidazo[1,2-b]pyridazine] yielded an IC50 (Homo sapiens, A549, 72 h) of less than 10 µM.

In the case of `c1ccc(-c2c(-c3ccc(CN4CCC(c5n[nH]c(-c6ccccn6)n5)CC4)cc3)nc3scnn23)cc1` [Example 11, 5-phenyl-6-(4-{[4-(5-pyridin-2-yl-1,2,4-triazol-3-yl)piperidin-1-yl]methyl}phenyl)imidazo[2,1-b][1,3,4]thiadiazole], the IC50 (Homo sapiens, A549, 72 h) is reported as less than 10 µM.

`Cc1nn2c(-c3ccccc3)c(-c3ccc(CN4CCC(c5nnc(-c6ccccn6)[nH]5)CC4)cc3)nc2s1` [Example 45, 2-methyl-5-phenyl-6-[4-({4-[5-(pyridin-2-yl)-4H-1,2,4-triazol-3-yl]piperidin-1-yl}methyl)phenyl]imidazo[2,1-b][1,3,4]thiadiazole] gave an IC50 (Homo sapiens, A549, 72 h) greater than 10 µM.

For `Cc1ccc(-c2nnc(C3CCN(Cc4ccc(-c5nc6scnn6c5-c5ccccc5)cc4)CC3)[nH]2)nc1` [Example 74, ′6-[4-({4-[5-(5-methylpyridin-2-yl)-4H-1,2,4-triazol-3-yl]piperidin-1-yl}methyl)phenyl]-5-phenylimidazo[2,1-b][1,3,4]thiadiazole], the IC50 [1] was less than 10 µM.

`Brc1cccn2c(-c3ccccc3)c(-c3ccc(CN4CCC(c5n[nH]c(-c6ccccn6)n5)CC4)cc3)nc12` [Example 25, 8-bromo-3-phenyl-2-(4-{[4-(5-pyridin-2-yl-1,2,4-triazol-3-yl)piperidin-1-yl]methyl}phenyl)imidazo[1,2-a]pyridine] showed an IC50 (Homo sapiens, A549, 72 h) of less than 10 µM.

Compound `COc1cccn2c(-c3ccccc3)c(-c3ccc(CN4CCC(c5n[nH]c(-c6ccccn6)n5)CC4)cc3)nc12` [Example 13, 8-methoxy-3-phenyl-2-(4-{[4-(5-pyridin-2-yl-1,2,4-triazol-3-yl)piperidin-1-yl]methyl}phenyl)imidazo[1,2-a]pyridine] has an IC50 (Homo sapiens, A549, 72 h) of less than 10 µM.

For `c1ccc(-c2nc(C3CCN(Cc4ccc(-c5nc6ccccn6c5-c5cccs5)cc4)CC3)n[nH]2)nc1` [Example 17, 2-(4-{[4-(5-pyridin-2-yl-1,2,4-triazol-3-yl)piperidin-1-yl]methyl}phenyl)-3-(2-thienyl)imidazo[1,2-a]pyridine], the IC50 (Homo sapiens, A549, 72 h) was less than 10 µM.

`Fc1ccc(-c2c(-c3ccc(CN4CCC(c5n[nH]c(-c6ccccn6)n5)CC4)cc3)nc3ncccn23)cc1` [Example 18, 3-(4-fluorophenyl)-2-(4-{[4-(5-pyridin-2-yl-1,2,4-triazol-3-yl)piperidin-1-yl]methyl}phenyl)imidazo[1,2-a]pyrimidine] showed an IC50 (Homo sapiens, A549, 72 h) greater than 10 µM.

With `NC(=O)c1ccn2c(-c3ccccc3)c(-c3ccc(CN4CCC(c5n[nH]c(-c6ccccn6)n5)CC4)cc3)nc2c1` [Example 38, 3-phenyl-2-(4-{[4-(5-pyridin-2-yl-1,2,4-triazol-3-yl)piperidin-1-yl]methyl}phenyl)imidazo[1,2-a]pyridine-7-carboxamide] the IC50 (Homo sapiens, A549, 72 h) was greater than 10 µM.

Work on `c1ccc(-c2c(-c3ccc(CN4CCC(c5cc(-c6ccccn6)[nH]n5)CC4)cc3)nc3scnn23)cc1` [Example 112, ′5-phenyl-6-(4-{[4-(5-pyridin-2-yl-1H-pyrazol-3-yl)piperidin-1-yl]methyl}phenyl)imidazo[2,1-b][1,3,4]thiadiazole] yielded an IC50 [1] of less than 10 µM.
